From ChEMBL document CHEMBL1201862, “PubChem BioAssay data set” (2004)
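Interpolation was linear, between the two tested concentrations surrounding the appropriate level; five concentrations were tested over 48 hours in 96-well plates. GI50: concentration for 50% inhibition of growth.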 Active and inactive are the calls of the source. Cut-off read from the data, not from the text of the source: active = GI50 up to about 1.1 µM and inactive = higher.

How the values were obtained:
Test in all cases: inhibition of tumour cell growth, NCI panel, 48 h
[1] = test system: 786-0
[2] = test system: A498
[3] = test system: A549
[4] = test system: ACHN
[5] = test system: BT-549
[6] = test system: CAKI-1
[7] = test system: CCRF-CEM
[8] = test system: COLO 205
[9] = test system: DU-145
[10] = test system: EKVX
[11] = test system: HCC 2998
[12] = test system: HCT-116
[13] = test system: HCT-15
[14] = test system: HL-60
[15] = test system: HOP-62
[16] = test system: HOP-92
[17] = test system: HT-29
[18] = test system: Hs-578T
[19] = test system: IGROV-1
[20] = test system: K562
[21] = test system: KM12
[22] = test system: LOX IMVI
[23] = test system: M14
[24] = test system: MCF7
[25] = test system: MDA-MB-231
[26] = test system: MDA-MB-435
[27] = test system: MDA-N
[28] = test system: MOLT-4
[29] = test system: Malme-3M
[30] = test system: NCI-H226
[31] = test system: NCI-H23
[32] = test system: NCI-H460
[33] = test system: NCI-H522
[34] = test system: NCI/ADR-RES
[35] = test system: OVCAR-3
[36] = test system: OVCAR-4
[37] = test system: OVCAR-5
[38] = test system: OVCAR-8
[39] = test system: PC-3
[40] = test system: RPMI-8226
[41] = test system: RXF 393
[42] = test system: SF-268
[43] = test system: SF-295
[44] = test system: SF-539
[45] = test system: SK-MEL-28
[46] = test system: SK-MEL-2
[47] = test system: SK-MEL-5
[48] = test system: SK-OV-3
[49] = test system: SN12C
[50] = test system: SNB-19
[51] = test system: SNB-75
[52] = test system: SR
[53] = test system: SW-620
[54] = test system: T47D
[55] = test system: TK-10
[56] = test system: U-251
[57] = test system: UACC-257
[58] = test system: UACC-62
[59] = test system: UO-31

`O=C(O)CNC(=O)c1cccc2c(=O)c3ccccc3[nH]c12` was tested, and the GI50 [1] was > 100 µM (inactive), the GI50 [2] was > 100 µM (inactive) and the GI50 [3] was > 100 µM (inactive). For the same molecule, the GI50 [4] was > 100 µM (inactive), the GI50 [5] was 91.8 µM (inactive) and the GI50 [6] was > 100 µM (inactive). The GI50 [7] was 97.3 µM (inactive), the GI50 [8] was > 100 µM (inactive) and the GI50 [9] was > 100 µM (inactive). For the same molecule, the GI50 [10] was > 100 µM (inactive), the GI50 [11] was > 100 µM (inactive) and the GI50 [12] was > 100 µM (inactive). The GI50 [13] was over 100 µM, the GI50 [14] was > 100 µM (inactive) and the GI50 [15] was > 100 µM (inactive). For the same molecule, the GI50 [16] was > 100 µM (inactive), the GI50 [17] was > 100 µM (inactive) and the GI50 [18] was > 100 µM (inactive). For the same molecule, the GI50 [19] was 26.9 µM (inactive), the GI50 [20] was > 100 µM (inactive) and the GI50 [21] was > 20.9 µM (inactive). For the same molecule, the GI50 [22] was > 100 µM (inactive), the GI50 [23] was > 100 µM (inactive) and the GI50 [24] was > 100 µM (inactive). For the same molecule, the GI50 [25] was > 100 µM (inactive), the GI50 [26] was > 100 µM (inactive) and the GI50 [27] was > 100 µM (inactive). The GI50 [28] was > 100 µM (inactive), the GI50 [29] was > 100 µM (inactive) and the GI50 [30] was > 100 µM (inactive). For the same molecule, the GI50 [31] was > 100 µM (inactive), the GI50 [32] was > 100 µM (inactive) and the GI50 [33] was > 100 µM (inactive). The GI50 [34] was > 100 µM (inactive), the GI50 [35] was > 100 µM (inactive) and the GI50 [36] was > 100 µM (inactive). For the same molecule, the GI50 [37] was > 100 µM (inactive), the GI50 [38] was > 100 µM (inactive) and the GI50 [39] was > 100 µM (inactive). The GI50 [40] was > 100 µM (inactive), the GI50 [41] was > 100 µM (inactive) and the GI50 [42] was > 100 µM (inactive). For the same molecule, the GI50 [43] was > 100 µM (inactive), the GI50 [44] was > 100 µM (inactive) and the GI50 [45] was > 100 µM (inactive). For the same molecule, the GI50 [46] was > 100 µM (inactive), the GI50 [47] was 99.8 µM (inactive) and the GI50 [48] was > 100 µM (inactive). The GI50 [49] was > 100 µM (inactive), the GI50 [50] was > 100 µM (inactive) and the GI50 [51] was 84.7 µM (inactive). The GI50 [52] was 14.9 µM (inactive), the GI50 [53] was > 100 µM (inactive) and the GI50 [54] was > 100 µM (inactive). For the same molecule, the GI50 [55] was > 100 µM (inactive), the GI50 [56] was > 100 µM (inactive) and the GI50 [57] was > 100 µM (inactive). The GI50 [58] was 99.8 µM (inactive) and the GI50 [59] was 70.1 µM (inactive).
For `CCC(C)C1NC(=O)C(NC(=O)C(CC(C)C)N(C)C(=O)[C@@H]2CC(O)CN2C(=O)[C@H](C)O)C(C)OC(=O)[C@H](Cc2ccc(OC)cc2)N(C)C(=O)[C@@H]2CCCN2C(=O)[C@H](CC(C)C)NC(=O)C(C)C(=O)[C@H](C(C)C)OC(=O)CC1O` (stereo partly drawn), the GI50 [1] was 0.258 µM (active), the GI50 [2] was 0.759 µM (active) and the GI50 [3] was 0.325 µM (active). The GI50 [4] was 0.351 µM (active), the GI50 [5] was 0.189 µM (active) and the GI50 [6] was 1.14 µM (inactive). For the same molecule, the GI50 [7] was 0.191 µM (active), the GI50 [8] was 0.117 µM (active) and the GI50 [9] was 0.356 µM (active). The GI50 [10] was 0.0201 µM (active), the GI50 [11] was 0.148 µM (active) and the GI50 [12] was 0.0458 µM (active). The GI50 [13] was 2.13 µM, the GI50 [14] was 0.417 µM (active) and the GI50 [15] was 0.25 µM (active). For the same molecule, the GI50 [16] was 0.255 µM (active), the GI50 [17] was 0.134 µM (active) and the GI50 [18] was 0.0266 µM (active). The GI50 [19] was 0.181 µM (active), the GI50 [20] was 0.29 µM (active) and the GI50 [21] was 0.035 µM (active). The GI50 [22] was 0.138 µM (active), the GI50 [23] was 0.0935 µM (active) and the GI50 [24] was 0.0627 µM (active). For the same molecule, the GI50 [25] was 0.349 µM (active), the GI50 [26] was 0.152 µM (active) and the GI50 [27] was 0.133 µM (active). For the same molecule, the GI50 [28] was 0.102 µM (active), the GI50 [29] was 0.0664 µM (active) and the GI50 [30] was 0.0641 µM (active). The GI50 [31] was 0.0169 µM (active), the GI50 [32] was 0.117 µM (active) and the GI50 [33] was 0.15 µM (active). For the same molecule, the GI50 [34] was 6.84 µM (inactive), the GI50 [35] was 0.232 µM (active) and the GI50 [36] was 0.17 µM (active). The GI50 [37] was 0.265 µM (active), the GI50 [38] was 0.406 µM (active) and the GI50 [39] was 0.252 µM (active). The GI50 [40] was 0.249 µM (active), the GI50 [41] was 0.0638 µM (active) and the GI50 [42] was 0.153 µM (active). For the same molecule, the GI50 [43] was 0.225 µM (active), the GI50 [44] was 0.0319 µM (active) and the GI50 [45] was 0.0462 µM (active). For the same molecule, the GI50 [46] was 0.0621 µM (active), the GI50 [47] was 0.0359 µM (active) and the GI50 [48] was 0.179 µM (active). For the same molecule, the GI50 [49] was 0.147 µM (active), the GI50 [50] was 0.164 µM (active) and the GI50 [51] was 0.141 µM (active). The GI50 [52] was 0.345 µM (active), the GI50 [53] was 0.235 µM (active) and the GI50 [54] was 0.0452 µM (active). The GI50 [55] was 0.676 µM (active), the GI50 [56] was 0.0718 µM (active) and the GI50 [57] was 0.276 µM (active). For the same molecule, the GI50 [58] was 0.0542 µM (active) and the GI50 [59] was 1.44 µM (inactive).
